Measurements reported in US20250333733A1, “NOVEL TARGETS AGAINST OVARIAN CANCER” (UNIVERSITY OF PUERTO RICO, priority 2022, published 2025).

Test system: OVCAR3CIS cells
Assay: Cell viability, Alamar blue, siRNA alone or with cisplatin
Format: cell-based
Conditions: OVCAR3CIS, vs NC-siRNA
Description: OVCAR3CIS cells (3.0×10^4 cells/mL) or SKOV3ip1CIS (3.0×10^4 cells/mL) were seeded into 12-well plates. […] The next day, 400 cells (OVCAR3CIS) or 1,000 cells (SKOV3ip1CIS) were seeded into 6-well plates and incubated for seven days, fixed and stained with 0.5% crystal violet in methanol. Colonies of at least 50 cells were counted using a light microscope (CKX41: Olympus, Center Valley, PA, USA) with a total magnification of 40x. For cell viability assays, OVCAR3 and OVCAR3CIS (3.0×10^4 cells/mL) or SKOV3ip1and SKOV3ip1CIS (3.5×10^4 cells/mL) were seeded into 96-well plates, and 24 hours later, siRNA transfection was performed as described above. The next day, the transfection mix was replaced with cisplatin (CIS) (2.5 uM final concentration dissolved in regular cell culture media) and after forty-eight hours, the medium was removed, and Alamar blue dye (Invitrogen, Thermo Fisher Scientific, Eugene, OR, USA) was added following the manufacturer's instructions. Optical density (OD) was measured, and percentages of cell viability were calculated after blank OD subtraction. Untreated cells were assessed as 100% cell viability.

CASC10-siRNA (2): siRNA targeting CASC10 RNA, SEQ ID NO 3 and 4: 5′ GACUCUUGGAUCCAAGUUU(dT)(dT) 3′ / 5′ AAACUUGGAUCCAAGAGUC(dT)(dT) 3′ (chain 1 GACUCUUGGAUCCAAGUUUNN; chain 2 AAACUUGGAUCCAAGAGUCNN; 3' dTdT overhangs, chemistry not fully specified)
reduction of cell viability (50 nM siRNA): 15%
reduction of cell viability (100 nM siRNA): 30%
cell viability (reduced to) (siRNA combined with CIS 2.5 μM): 56%
